Laboratory results taken from patent US11806393B2, “Flavivirus peptide sequences, epitopes, and methods and uses thereof” (priority 2017, dated 2023).

How the values were obtained:
Assay type in all cases: cell-based, mouse
[1] = tested on: CD3+CD8+ T cells; assay: IFNγ ICS, ZIKV-infected Ifnar-/- HLA-B*0702 transgenic mice; details: for % IFNγ+ CD8+ T cells, MR766 / % IFNγ+ CD8+ T cells, FSS13025: HLA-B*0702 mice; for % IFNγ+ CD8+ T cells, MR766: 7 days after ZIKV MR766, ICS; for % IFNγ+ CD8+ T cells, FSS13025: 7 days after ZIKV FSS13025, ICS; for simultaneous IFNγ and TNFα secretion by peptide-stimulated CD8+ T cells: mice infected with either ZIKV FSS13025 or ZIKV MR766
Experimental: (§1) Two ZIKV strains, MR766 (Uganda, 1947) and FSS13025 (Cambodia, 2010), were obtained from the World Reference Center for Emerging Viruses and Arboviruses (WRCEVA). The mouse-adapted DENV2 strain S221 is a triple-plaque purified clone derived from DENV2 D2S1038. Both ZIKV and DENV2 were amplified in C6/36 mosquito cells, and viral titers were measured using baby hamster kidney (BHK)-21 cell-based focus forming assay (FFA). For epitope screening, 5-week old mice (female or male) were infected retro-orbitally (R.O.) with either 1×102 FFU of ZIKV FSS13025 or ZIKV MR766, or 2×10^4 FFU of DENV2 S221 in 200 μl 10% FBS/PBS. Seven days after infection, CD8^+ T cells were isolated from splenocytes and used for ELISPOT assay, while the splenocytes were directly used for ICS assay. Additionally, 5-week old mice were inoculated I.P. with 2×10^3 FFU of DENV2 S221 for 4 weeks.
(§2) Spleens were harvested from virus-infected, mock-immunized, or peptide-immunized mice. 1×10^6 splenocytes were plated in each well of 96-well U-bottom plates and stimulated with individual peptide (10 μg crude peptide or 1 μg pure peptide per well) for 6 hours. Five hours before the end of incubation, Brefeldin A (GolgiPlug; BD Biosciences) and PE-conjugated anti CD107a mAb (clone 1D4B, eBioscience) were added to the cells. Splenocytes stimulated with PMA-ionomycin were used as the positive control, while cells without any stimulation were the negative control. […] Samples were run using an LSR™ II (BD Biosciences) and analyzed using FLOWJO™ software X 10.0.7 (Tree Star, Ashland, Oreg.).
Data represent the average of two independent experiments and are expressed as mean±SEM. *, P<0.05; **, P<0.01; Two-tailed Mann-Whitney test. P/I denotes PMA/ionomycin.

[2] = tested on: CD8+ T cells; assay: IFNγ ELISPOT, ZIKV-infected Ifnar-/- HLA-B*0702 transgenic mice; details: HLA-B*0702 mice; for SFC/10^6 CD8+ T cells, FSS13025: 7 days after 1×10^2 FFU ZIKV FSS13025; for SFC/10^6 CD8+ T cells, MR766: 7 days after 1×10^2 FFU ZIKV MR766; for immunodominance in IFNγ ELISPOT: immunodominant: >500 SFCs/10^6 CD8+ T cells, shared by both ZIKV strains
Experimental: as §1
(§3) CD8^+ T cells were isolated from splenocytes using magnetic bead positive selection (Miltenyi Biotec, Germany) 7 days after virus infection. 2×10^5 CD8^+ T cells were stimulated with 1×10^5 LPS-blasts loaded with 10 μg of individual peptide in 96-well flat-bottom plates (IMMOBILON™-P; Millipore, Bedford, Mass.) that were coated with anti-IFNγ mAb (clone AN18; Mabtech, Stockholm, Sweden) in triplicate. Concanavalin A (ConA) was used as positive control. After 20 hours of incubation, biotinylated anti-mouse IFNγ mAb (R4-6A2; Mabtech), followed by ABC peroxidase (Vector Laboratories, Burlingame, Calif., USA) and then 3-amino-9-ethylcarbazole (Sigma-Aldrich, St. Louis, Mo., USA) were added into the wells. […] A peptide inducing a magnitude of >500 SFCs/10^6 CD8^+ T cells was considered as an immunodominant peptide.
Two independent experiments performed in triplicate were averaged and the error bars represent the SEM. The data are expressed as the mean number of spot forming cells (SFC) per 10^6 CD8^+ T cells. The criteria for positivity were net SFC per 10^6 cells of >20, and a stimulation index of >2.0 when compared with the negative control. Dotted lines represent the cutoff value. * Indicates a positive response. […] ConA denotes Concanavalin A.

[3] = tested on: CD8+ T cells; assay: IFNγ ICS, DENV2 S221-infected Ifnar-/- HLA-B*0702 transgenic mice; details: HLA-B*0702 mice; for % IFNγ+ CD8+ T cells, S221: 7 days after DENV2 S221, ICS; for ZIKV/DENV cross-reactivity in DENV2-infected mice (IFNγ ELISPOT and IFNγ ICS): DENV2 S221, 7 days
Experimental: as §1, §2
(§4) The following results are with respect to FIG. 14A and FIG. 14B, where Ifnar^−/− HLA-B*0702 transgenic mice were infected R.O. with 2×10^4 FFU of DENV2 strain S221 for 7 days. CD8^+ T cells isolated from splenocytes were stimulated with each of the 37 ZIKV epitopes identified via IFNγELISPOT to perform (FIG. 14A) IFNγELISPOT and (FIG. 14B) ICS assay. Data represent the average of two independent IFNγELISPOT experiments and two independent ICS experiments (n=7 mice) and are expressed as mean±SEM. Dotted line corresponds to the cutoff value. *, P<0.05.

[4] = tested on: CD44+CD62L- CD8+ T cells; assay: ICS, peptide-immunized Ifnar-/- HLA-B*0702 mice challenged with ZIKV; details: day 3 after ZIKV challenge; for percentage of IFNγ-producing cells among antigen experienced (CD44+CD62L-) CD8+ T cells: mice immunized with the 3 ZIKV immunodominant epitopes
Excerpt: Two HLA-B*0702-binding ZIKV-specific peptides (FSS-NS2A133-141(SEQ ID NO: 41) and FSS/MR766-NS2B68-75 (SEQ ID NO: 45)) and four ZIKV/DENV cross-reactive peptides (FSS/MR766-NS4B426-435 (SEQ ID NO: 60), FSS/MR766-NS2A75-84 (SEQ ID NO: 39), FSS/MR766-NS3206-215 (SEQ ID NO: 47), and FSS/MR766-NS3574-582 (SEQ ID NO: 52)) were chosen for synthesis. Five HLA-A*0101-binding peptides (FSS/MR-E159-167 (SEQ ID NO: 70), FSS/MR-E195-203 (SEQ ID NO: 71), FSS/MR-NS123-31 (SEQ ID NO: 74), FSS/MR-NS4B231-239 (SEQ ID NO: 77), and FSS/MR-NS5509-517 (SEQ ID NO: 79)) were chosen for synthesis. Mice (both female and male; 5-6 weeks of age) were immunized subcutaneously with a mixture of HCV helper peptide (100 μg/mouse) and 3 or 4 HLA-B*0702-binding peptides (50 μg/peptide/mouse) emulsified in Complete Freund's Adjuvant (CFA). Mock group mice received the same immunization strategy but without any ZIKV-specific or ZIKV/DENV cross-reactive peptide. On the 21st day, mice were boosted with the same peptide mixtures emulsified in Incomplete Freund's Adjuvant (IFA). […] Three days post ZIKV infection mice were sacrificed, and serum and spleen were harvested. The splenocytes were used for ICS assay. After cardiac perfusion with PBS, brain was harvested. The levels of infectious ZIKV in serum and brain were measured using FFA.
as §2
Peptide groups received corresponding peptide immunizations as described in Materials and Methods. […] CD3^+CD8^+CD44^+CD62L− T cells were gated and the percentages of IFNγ^+ and/or TNFα^+ cells in a representative mouse from mock (FIG. 12A) and peptide (FIG. 12B) groups were determined by ICS. The levels of infectious ZIKV in sera and brains were measured via FFA. Data were expressed as mean±SEM. *, P<0.05; **, P<0.01; ***, P<0.001. Two-tailed Mann-Whitney test.

[5] = tested on: CD8+ T cells; assay: IFNγ ELISPOT, DENV2 S221-infected Ifnar-/- HLA-B*0702 transgenic mice; details: HLA-B*0702 mice, 7 days after 2×10^4 FFU DENV2 S221
Experimental: as §1, §3, §4

[6] = tested on: CD8+ T cells; assay: ICS, DENV2-immune Ifnar-/- HLA-B*0702 mice challenged with ZIKV FSS13025; details: day 3 after ZIKV FSS13025 challenge
Experimental: as §1
Spleens were harvested from virus-infected, mock-immunized, or peptide-immunized mice. 1×10^6 splenocytes were plated in each well of 96-well U-bottom plates and stimulated with individual peptide (10 μg crude peptide or 1 μg pure peptide per well) for 6 hours. Five hours before the end of incubation, Brefeldin A (GolgiPlug; BD Biosciences) and PE-conjugated anti CD107a mAb (clone 1D4B, eBioscience) were added to the cells. Splenocytes stimulated with PMA-ionomycin were used as the positive control, while cells without any stimulation were the negative control. After incubation, cells were first stained with PERCPCY™ 5.5-conjugated anti-CD3 mAb (Clone 145-2C11, TONBO), PE-CY7™-conjugated anti-CD8 mAb (clone 53-67, BD Biosciences), EFLUOR™ 450-conjugated anti-CD44 mAb (clone IM7, eBioscience), and APC eFluor 780-conjugated anti-CD62L mAb (clone Mel-14, eBioscience). Cells were then fixed and permeabilized using CYTOFIX/CYTOPERM™ solution (BD Biosciences), followed by staining with FITC-conjugated anti-IFNγ mAb (clone XMG 1.2, TONBO) and APC-conjugated anti-TNFα mAb (clone MP6-XT22, eBioscience). Samples were run using an LSR™ II (BD Biosciences) and analyzed using FLOWJO™ software X 10.0.7 (Tree Star, Ashland, Oreg.).
The following results are with respect to FIG. 11 to FIG. 11E, where Ifnar^−/− HLA-B*0702 transgenic mice were inoculated I.P. with 2×10^3 FFU of DENV2 strain S221 for 4 weeks. Naive mice (n=5) and DENV2 strain S221-immune mice (n=5) were challenged R.O. with 1×10^4 FU of ZIKV FSS13025 for three days, and the percentages of peptide-specific IFNγ^+ and/or TNFα^+ CD8^+ T cells were detected by ICS (FIG. 11A and FIG. 11B). […] Data were expressed as mean±SEM. *, P<0.05; **, P<0.01; Two-tailed ann-Whitney test. Black “*” indicates ZIKV-specific response while bold “*” represents ZIKV/DENV cross-reactive response. All positive peptides were grouped according the ZIKV specificity of immune response (FIG. 11E). Numbers in parentheses indicate the number of positive peptides in this group.

Row | Sequence | % IFNγ+ CD8+ T cells, MR766 [1] | SFC/10^6 CD8+ T cells, FSS13025 [2] | SFC/10^6 CD8+ T cells, MR766 [2] | % IFNγ+ CD8+ T cells, S221 [3] | percentage of IFNγ-producing cells among antigen experienced (CD44+CD62L-) CD8+ T cells [4] | % IFNγ+ CD8+ T cells, FSS13025 [1] | immunodominance in IFNγ ELISPOT [2] | percentage of epitope-specific cells among antigen experienced (CD44+CD62L-) CD8+ T cells ([4]; mice immunized with the 4 ZIKV/DENV cross-reactive peptides) | simultaneous IFNγ and TNFα secretion by peptide-stimulated CD8+ T cells [1] | SFC/10^6 CD8+ T cells, S221 [5] | ZIKV/DENV cross-reactivity in DENV2-infected mice (IFNγ ELISPOT and IFNγ ICS) [3] | percentage of epitope-specific IFNγ-producing CD8+ T cells [6] | simultaneous IFNγ and TNFα production by peptide-stimulated CD8+ T cells ([1]; ZIKV MR766-infected mice)
1 | RPRVCTKEEF [FSS/MR-NS5140-149] | (0.24%) | 162 SFC/10^6 CD8+ T cells | 311 SFC/10^6 CD8+ T cells | 0.28% |  |  |  |  |  |  |  |  | 
2 | VPRTDNITL [FSS-NS2A133-141] | (1.07%) | 786 SFC/10^6 CD8+ T cells | 1182 SFC/10^6 CD8+ T cells |  | 0.86%±0.71 | (0.9%) | immunodominant |  |  |  |  |  | 
3 | RPGAFCIKVL [FSS/MR-NS4B426-435] | (2.36%) | 1223 SFC/10^6 CD8+ T cells | 1362 SFC/10^6 CD8+ T cells | (0.3%) | 1.63±0.76% | (2.28%) | most immunodominant epitope | 1.52±0.42% | simultaneously secreted both IFNγ and TNFα | 90 SFC/10^6 CD8+ T cells | positive in both IFNγ ELISPOT and IFNγICS assays |  | 
4 | VVMILGGFSM [MR-NS2A31-40] | (0.37%) |  | 106 SFC/10^6 CD8+ T cells |  |  |  |  |  |  | 51 SFC/10^6 CD8+ T cells |  | 0.42±0.12% | 
5 | TPRESMLLAL [FSS/MR-NS2A89-99] | (0.95%) | 807 SFC/10^6 CD8+ T cells | 823 SFC/10^6 CD8+ T cells |  |  | (0.56%) | immunodominant |  | simultaneously secreted both IFNγ and TNFα | 55 SFC/10^6 CD8+ T cells |  |  | 
6 | RVCSDHAAL [FSS/MR-NS3581-589] | (0.31%) |  | 411 SFC/10^6 CD8+ T cells |  |  |  |  |  |  | 44 SFC/10^6 CD8+ T cells |  |  | 
7 | VPTGRTTVV (VPTGRTTW) [FSS/MR-NS5539-546] | (0.25%) |  | 121 SFC/10^6 CD8+ T cells | (0.18%) |  |  |  |  |  | 54 SFC/10^6 CD8+ T cells | positive in both IFNγ ELISPOT and IFNγICS assays |  | 
8 | SPRLDVAL [FSS/MR-NS2B68-75] | (0.77%) | 963 SFC/10^6 CD8+ T cells | 993 SFC/10^6 CD8+ T cells |  | 0.61±0.47% | (0.56%) | immunodominant |  |  |  |  |  | stimulated simultaneous production of IFNγ and TNFα
9 | LPEIVREAI [FSS/MR-NS3188-196] | (0.23%) |  | 179 SFC/10^6 CD8+ T cells |  |  |  |  |  |  | 63 SFC/10^6 CD8+ T cells |  |  | 
